Data set [1] deals with PEPCK gene expression. The experiment in a line: PEPCK gene expression assay - qPCR in HEPG2 cells. Format: cell-based. The settings on record: HEPG2; 100 nM + Dex/cAMP. As to the method: PEPCK gene expression was studied in HEPG2 (hepatocarcinoma) cells, seeded in 6-well plate at […] per well. The cells were serum-starved for 20 hours before treatment with dexamethasone/cAMP (stimulator of PEPCK gene expression) in the presence or absence of insulin or GSK3 inhibitor example compounds. After 3 hours treatment the cells were harvested, lysed and RNA extracted using mini RNeasy spin columns (Quiagen). The primer set COD2063/COD2064 (350 bp) was used for the PEPCK gene. The one step RT-PCR was carried out using the Lightcycler-RNA Master SYBR Green 1 Kit. The qPCR analysis calculates the number of the PCR cycles required for the PCR product amplification to reach logarithmic phase. QPCR for a housekeeping gene—28S—was used for normalisation. PEPCK is a key enzyme in gluconeogenesis in the liver and it is known to be negatively regulated by insulin via inhibition of GSK3. The effect of example compounds on PEPCK gene expression was studied in HEPG2 cells treated with dexamethasone/cAMP (a positive regulator PEPCK gene expression) in the presence or absence of insulin or GSK3 inhibitors. Example compound inhibitors of GSK3 were efficient in the abolishment of dexamethasone/cAMP induced stimulation of PEPCK gene expression in HEPG2 cells.

Data set [2] has as its target CDK2/cyclin E (Homo sapiens, UniProt P24941). The experiment in a line: Kinase assay CDK2/cyclin E. Type of data set: biochemical. Conditions: Ki calculated (Cheng-Prusoff) from experimentally determined IC50 and Km,ATP; read-out: Kinase Inhibition Ki CDK2 - cyclin E. The method in brief:
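Radiometric assays measured transfer of radioactive phosphate from ATP onto polypeptide substrates, using 2-4 μg recombinant active enzyme in buffer typically containing 25 mM β-glycerophosphate, 20 mM MOPS, 5 mM EGTA, 1 mM DTT and 1 mM Na3VO3 at pH 7.4. Reactions were stopped on ice, filtered on P81 or GF/C plates and washed with orthophosphoric acid. Incorporated radioactivity was scintillation-counted.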

Data set [3] has as its target CDK7/cyclin H (Homo sapiens, UniProt P50613). The experiment in a line: Kinase assay CDK7/cyclin H. Format: biochemical. Conditions: Ki calculated (Cheng-Prusoff) from experimentally determined IC50 and Km,ATP; read-out: Kinase Inhibition Ki CDK7 - cyclin H. The method, boiled down: (§1)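 Radiometric filter assays used recombinant kinases or complexes (2-4 μg) with appropriate polypeptide substrates in pH 7.4 β-glycerophosphate/MOPS buffer. Reactions were started with 15 mM MgCl2 and 100 μM ATP containing [γ-32P]-ATP and run at 30° C. Phosphate incorporated into substrate was counted by scintillation after washing.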

The target of data set [4] is CDK9/cyclin T1 (Homo sapiens, UniProt P50750). In words: Kinase assay CDK9/cyclin T1. Type of data set: biochemical. The settings on record: Ki calculated (Cheng-Prusoff) from experimentally determined IC50 and Km,ATP; read-out: Kinase Inhibition Ki CDK9 - cyclin T1. The method in brief:
as §1

Data set [5] addresses T1, GSK3β (Homo sapiens, UniProt P49841).
T1 construct: purchased New England Biolabs
The experiment in a line: GSK3β in vitro kinase assay. The settings on record: recombinant human GSK3β, 100 μM ATP. Type of data set: biochemical. The method, boiled down: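 Radiometric filter-binding assay with GSK3β (1.5 units), 200 μM CREB phosphopeptide, 100 μM ATP plus [γ-32P]ATP, in 20 mM Tris HCl pH7.5, 5 mM DTT, 15 mM MgCl2, 2% DMSO; 30 min at 30° C, stopped with phosphoric acid. 32P incorporation counted by scintillation; IC50 from 10-point titration.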

Data set [6] deals with T2, GSK3α (Homo sapiens, UniProt P49840).
T2 construct: purchased Upstate
In words: GSK3α in vitro kinase assay. Conditions: recombinant human GSK3α, 100 μM ATP. Type of data set: biochemical. As to the method:
Both isoforms of GSK3 (α and β) are involved in the regulation of glycogen synthase activity—key enzyme in the glycogen metabolism. The inhibitory potency of example compounds was determined using in vitro kinase assays with recombinant human GSK3-α and -β; the IC50 values determined are presented in Table 9.
A 10-point titration was set up to determine the IC50 values of selected example compounds against GSK3β. Assays were performed using 96-well microtiter plates with a final volume of 25 μL per well. Each assay contained 1.5 units of GSK3β(New England Biolabs), 200 μM CREB phosphopeptide ([…]pSYR, Alta Biosciences), 20 mM Tris HCl pH7.5, 5 mM DTT, 15 mM MgCl2 supplemented with 100 μM ATP and 0.5 μCi of [γ-^32P] ATP plus or minus inhibitor in 2% DMSO. Assays were carried out for 30 minutes at 30° C. before stopping the reaction by the addition of an equal volume of 75 mM aqueous phosphoric acid. Samples were then spotted onto a p81 filterplate (Whatman) and a vacuum was applied. Wells were washed 3 times with 200 μL of dilute aqueous phosphoric acid before the addition of 50 μL Microscint 40 per well. Incorporation of radioactivity was determined on a Topcount microplate scintillation counter (Packard).
GSK3α (Upstate) was assayed exactly as described above except that 1 ng of enzyme was added per assay point.

Data set [7] addresses T3, DYRK1A (Homo sapiens, UniProt Q13627).
T3 construct: purchased Upstate
In words: DYRK1A in vitro kinase assay. Type of data set: biochemical. The settings on record: recombinant human DYRK1A, 100 μM ATP. An excerpt: Dual specificity tyrosine phosphorylation regulated kinase 1A (DYRK1A) has been proposed, amongst other functions, to play a role in the regulation of glycogen metabolism in a way similar to GSK3. Some of the example compounds of the present invention were screened against recombinant human DYRK1A in vitro and the determined IC50 values are shown in Table 9. According to our current knowledge inhibition of DYRK1A will have additional positive effect on stimulation of glycogen synthase.
A 10-point titration was set up to determine the IC50 values of selected example compounds against DYRK1A. Assays were performed using 96-well microtiter plates and a final volume of 25 μL/well. Each assay contained 2.3 milliunits of DYRK1A (Upstate), 50 μM Woodtide peptide ([…], Upstate), 20 mM Tris HCl pH 8.0, 10 mM DTT, 5 mM EGTA, 1 mM NaVO3, 31 mM β-glycerophosphate, 15 mM MgCl2 supplemented with 100 μM ATP and 0.5 μCi of [γ-^32P] ATP plus or minus inhibitor in 2% DMSO. Assays were carried out for 60 minutes at 30° C. before stopping the reaction by the addition of an equal volume of 75 mM aqueous phosphoric acid. Samples were then spotted onto a p81 filterplate (Whatman) and a vacuum applied. Wells were washed 3 times with 200 μL of dilute aqueous phosphoric acid before the addition of 50 μL Microscint 40 per well. Incorporation of radioactivity was determined on a Topcount microplate scintillation counter (Packard).

Data set [8] is described as follows: Oral glucose tolerance in male ZDF fa/fa rats. Type of data set: in vivo, rat. On the procedure:
(§2) The ability of example compounds of the present invention to improve glucose metabolism was tested in 12-13 week old male ZDF fa/fa rats. The test animals (10-15 mmol/L fasting glucose level) were dosed twice at 30 mg/kg and the glucose challenge was given at time 0. […] Most of these blood levels were below the EC50 values determined in cellular assays.
(§3) 12-13 weeks old male ZDF fa/fa rats were used to study the effect of example compounds on oral glucose tolerance. […] Body weight was recorded three times per week. Test compounds were dissolve in a formulation of 10% DMSO, 5% Tween, 5% Span 20, 30% PEG 400 and 50% water (v/v) to provide final solutions at 5 mg/mL concentration. Each experimental group contained 7 animals. After an 16 h overnight fast the test compounds were administered at 30 mg/kg per os twice (at −270 min and −30 min) before the oral glucose tolerance test was commenced (2 g glucose/kg per os as a 40% solution introduced via feeding tube). A control group was dosed in a similar manner with the vehicle only. Blood sampling for blood glucose measurement (20 μL blood) was performed at −270, 0, 15, 30, 60, 90, 120 and 180 min. Mixed venous blood was collected from the tail vein into 20-μL glass capillaries, which were placed in a standard tube filled with 1 mL solution for hemolysis. Glucose levels were measured using the glucose oxidase procedure (Super G Glukosemessgeraet; Dr Mueller Geraetebau, Freital, Germany). In addition, 50 μL blood samples were taken at 30 and 60 min after the glucose dose, placed in heparinized tubes, which were then frozen immediately in liquid nitrogen. The bioanalytical method used employed isocratic elution liquid chromatography—tandem mass spectrometry in electrospray positive ion multiple reaction monitoring mode.

Data set [9] can be described thus: Blood levels of test compounds in ZDF fa/fa rats. Format: in vivo, rat. Conditions: 30 mg/kg per os twice. As to the method:
as §2, §3

The mark [10] stands for this setting: ZDF fa/fa rats, oral glucose tolerance, 30 mg/kg per os twice (−270 and −30 min).
The mark [11] stands for this setting: male ZDF fa/fa rats, 30 mg/kg per os twice, oral glucose tolerance test.

Marks after values point to notes of the source that are not given here.

A word on the Ki: it is a dissociation constant, usually derived from enzyme kinetics or from competition with a known ligand. Broadly, the IC50 is the point on the concentration scale where inhibition reaches its midpoint.

T1 sequence (P49841 whole entry): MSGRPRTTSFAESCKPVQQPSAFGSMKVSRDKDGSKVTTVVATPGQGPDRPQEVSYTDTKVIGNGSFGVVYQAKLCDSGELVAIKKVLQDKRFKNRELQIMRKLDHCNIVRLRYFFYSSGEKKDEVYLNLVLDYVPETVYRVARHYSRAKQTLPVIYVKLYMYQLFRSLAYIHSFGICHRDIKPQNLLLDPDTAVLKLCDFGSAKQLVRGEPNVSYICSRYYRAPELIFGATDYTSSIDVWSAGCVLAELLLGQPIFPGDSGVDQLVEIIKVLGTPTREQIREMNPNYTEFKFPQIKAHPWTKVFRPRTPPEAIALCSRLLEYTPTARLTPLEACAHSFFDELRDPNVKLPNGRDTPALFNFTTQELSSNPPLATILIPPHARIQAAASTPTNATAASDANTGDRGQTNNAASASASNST
Sequence of CDK9/cyclin T1 (P50750 whole entry, species assumed): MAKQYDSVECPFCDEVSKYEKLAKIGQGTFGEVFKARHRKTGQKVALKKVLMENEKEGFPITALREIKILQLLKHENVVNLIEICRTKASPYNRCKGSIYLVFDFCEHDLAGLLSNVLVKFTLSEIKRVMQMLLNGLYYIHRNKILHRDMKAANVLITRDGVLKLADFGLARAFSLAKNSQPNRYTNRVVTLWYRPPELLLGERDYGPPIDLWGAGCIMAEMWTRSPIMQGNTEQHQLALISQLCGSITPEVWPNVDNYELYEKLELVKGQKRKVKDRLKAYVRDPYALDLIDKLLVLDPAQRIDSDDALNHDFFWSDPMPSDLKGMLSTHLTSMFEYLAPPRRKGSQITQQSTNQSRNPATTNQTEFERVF
Sequence of CDK9/cyclin T1 (O60563 whole entry partner, species assumed): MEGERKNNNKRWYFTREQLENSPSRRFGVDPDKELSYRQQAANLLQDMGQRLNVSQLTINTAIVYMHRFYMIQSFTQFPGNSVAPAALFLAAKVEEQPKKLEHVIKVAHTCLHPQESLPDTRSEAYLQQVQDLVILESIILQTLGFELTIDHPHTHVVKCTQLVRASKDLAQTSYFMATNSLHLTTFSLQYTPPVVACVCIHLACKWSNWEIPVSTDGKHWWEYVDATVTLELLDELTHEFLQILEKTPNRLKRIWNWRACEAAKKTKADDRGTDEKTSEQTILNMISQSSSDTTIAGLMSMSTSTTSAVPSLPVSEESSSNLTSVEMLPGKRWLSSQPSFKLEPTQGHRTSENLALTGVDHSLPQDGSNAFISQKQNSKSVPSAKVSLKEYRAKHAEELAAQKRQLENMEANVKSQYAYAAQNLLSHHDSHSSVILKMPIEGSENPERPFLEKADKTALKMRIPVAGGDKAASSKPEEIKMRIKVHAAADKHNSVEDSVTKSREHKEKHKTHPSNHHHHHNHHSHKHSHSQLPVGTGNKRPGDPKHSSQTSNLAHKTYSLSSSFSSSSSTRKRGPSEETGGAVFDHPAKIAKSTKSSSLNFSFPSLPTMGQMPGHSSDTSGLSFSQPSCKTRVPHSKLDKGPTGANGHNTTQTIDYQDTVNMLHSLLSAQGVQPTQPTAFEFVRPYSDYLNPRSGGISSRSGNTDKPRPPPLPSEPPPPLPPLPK
Sequence of CDK7/cyclin H (P50613 whole entry, species assumed): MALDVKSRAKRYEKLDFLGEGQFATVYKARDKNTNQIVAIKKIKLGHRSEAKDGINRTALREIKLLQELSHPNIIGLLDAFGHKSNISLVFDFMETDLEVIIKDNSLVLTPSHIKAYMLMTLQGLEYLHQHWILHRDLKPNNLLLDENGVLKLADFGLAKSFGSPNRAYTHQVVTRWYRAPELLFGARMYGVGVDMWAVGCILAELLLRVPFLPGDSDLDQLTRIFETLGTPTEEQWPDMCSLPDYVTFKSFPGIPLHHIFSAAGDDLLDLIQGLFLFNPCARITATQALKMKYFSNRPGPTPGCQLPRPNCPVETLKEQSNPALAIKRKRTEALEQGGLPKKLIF
Sequence of CDK7/cyclin H (P51946 whole entry partner, species assumed): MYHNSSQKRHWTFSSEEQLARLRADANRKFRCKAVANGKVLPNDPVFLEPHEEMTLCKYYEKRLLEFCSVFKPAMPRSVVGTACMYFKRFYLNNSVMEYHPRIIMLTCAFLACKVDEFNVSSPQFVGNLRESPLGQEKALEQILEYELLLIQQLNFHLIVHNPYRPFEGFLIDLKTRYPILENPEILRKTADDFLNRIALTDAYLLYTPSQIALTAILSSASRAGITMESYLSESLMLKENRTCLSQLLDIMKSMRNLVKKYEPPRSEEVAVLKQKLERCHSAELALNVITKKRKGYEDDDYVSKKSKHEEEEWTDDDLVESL
T2 sequence (P49840 whole entry): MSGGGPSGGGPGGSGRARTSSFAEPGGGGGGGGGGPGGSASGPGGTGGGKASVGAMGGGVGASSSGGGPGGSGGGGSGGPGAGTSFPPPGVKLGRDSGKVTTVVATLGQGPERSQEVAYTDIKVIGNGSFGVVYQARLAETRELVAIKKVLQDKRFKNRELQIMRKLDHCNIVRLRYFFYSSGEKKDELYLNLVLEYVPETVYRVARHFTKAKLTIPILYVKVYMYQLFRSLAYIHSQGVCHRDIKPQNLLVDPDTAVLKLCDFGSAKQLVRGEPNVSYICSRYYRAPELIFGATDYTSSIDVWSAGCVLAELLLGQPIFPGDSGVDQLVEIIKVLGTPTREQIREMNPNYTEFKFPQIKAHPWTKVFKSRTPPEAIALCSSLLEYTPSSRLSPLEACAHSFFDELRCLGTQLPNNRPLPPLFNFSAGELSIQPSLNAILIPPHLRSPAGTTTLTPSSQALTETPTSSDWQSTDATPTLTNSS

For Insulin, in [1], the “PEPCK gene expression, % of maximum stimulation” value came out at 44.09 ± 11.07%.

`Cc1c(-c2ccnc(Nc3ccc(Cl)c(C(F)(F)F)c3)n2)sc(=O)n1C` [Compound 66, 5-[2-(4-Chloro-3-trifluoromethyl-phenylamino)-pyrimidin-4-yl]-3,4-dimethyl-3H-thiazol-2-one]: the Ki in [2] was 200 nM; in data set [3], 2300 nM; in [4], 21 nM. The IC50 turned out to be 15 nM in data set [5], 32 nM in data set [6] and 356 nM in data set [7]. Besides, the “% Glucose Decrease AUC (−270–180 min)” value in data set [8] (setting [10]) came out at 20%. In data set [8] (setting [10]), the “% Glucose decrease-AUC (0–180 min)” value is given as 17* %. Further, the “decreased blood glucose levels” value in data set [8] (setting [11]) is recorded as “statistically significant”. Moreover, the “glucose AUC” value in data set [8] (setting [11]) is reported as “moderate decrease”. Besides, in data set [9] (male ZDF fa/fa rats), the “oral bioavailability (blood levels at 30 and 60 min after the glucose load)” value is on record as “some oral bioavailability”. The same compound registered a concentration at 30 min in [9] (male, rat, whole blood, oral, ZDF fa/fa rats, time 30 min) of 157 ng/mL. The compound further showed a concentration at 60 min in data set [9] (male, rat, whole blood, oral, ZDF fa/fa rats, time 60 min) of 162 ng/mL.
